Common to all, as to format: biochemical
The subject of experiment [1] is HaloTag protein available from Promega Corporation. Put plainly: Protein trimer formation with HaloTag protein by SDS-PAGE. The settings on record: 4 h incubation at rt, coomassie staining. How it is done: To a solution of N-tris[(2-carboxyethoxy)methyl]methyl nile red-oxyacetamide (86) (6 mg, 0.0083 mmol) and 18-chloro-3,6,9,12-tetraoxaoctadecan-1-amine (10 mg, 0.029 mmol, 3.5 eq) in DMF (1 mL) are successively added pyridine (5 μL, 0.058 mmol, 7 eq), HOBT (1 M in NMP, 8.3 μL, 0.0083 mmol, 1 eq) and EDC (6 mg, 0.029 mmol, 3.5 eq) at rt. The resulting mixture is stirred overnight. The solvent is evaporated under vacuum and compound (100) isolated by reversed phase HPLC on a C18 column using a linear gradient of water:acetonitrile (from 95:5 to 20:80 in 20 min, 0.08% TFA). The structural ability of compound (100) to trigger the formation of a protein trimer is confirmed by in vitro experiments using the fusion protein H2. 10 μL of a 70 μM solution of HaloTag protein available from Promega Corporation and 1.8 μL of a 230 μM solution of compound (100) is added to 3.2 μL of a solution of 50 mM Tris-HCl pH 7.5; 100 mM NaCl; 0.1% Tween20; 1 mM DTT. Following a 4 h incubation at rt, 15 μL of a solution of 100 mM Tris-HCl pH 6.8; 2% SDS; 35% glycerol; 10 mM EDTA; 20 mM DTT is added. Then the mixture is boiled for 5 min at 95° C. After cooling to rt, 25 μL of this solution is loaded on a 4-20% linear gradient SDS-PAGE gel. After electrophoresis, the proteins are coomassie stained in gel to visualize protein trimer.

In experiment [2] the test system is fusion protein CLIP-FRB and the fusion protein SNAP-FKBP. The experiment is described as follows: Protein dimer formation with CLIP-FRB and SNAP-FKBP by SDS-PAGE. The settings on record: overnight incubation at 4° C., coomassie staining. How it is done: The structural ability of compound (104) and (105) to trigger the formation of a protein dimer is confirmed by in vitro experiments using the fusion protein CLIP-FRB and the fusion protein SNAP-FKBP. 1 μL of a 591 μM solution of FKBP protein fused to a variant of AGT available from Covalys as SNAP26, 10 μL of a 52.9 μM solution of FRB protein fused to a variant of AGT available from Covalys as CLIP and 1 μL of a 62.5 μM solution of mixture of compounds (104) and (105) is added to 3 μL of a solution of 50 mM Tris-HCl pH 7.5; 100 mM NaCl; 0.1% Tween20; 1 mM DTT. Following overnight incubation at 4° C., 15 μL of a solution of 100 mM Tris-HCl pH 6.8; 2% SDS; 35% glycerol; 10 mM EDTA; 20 mM DTT is added. Then the mixture is boiled for 5 min at 95° C. After cooling to rt, 25 μL of this solution is loaded on a 4-20% linear gradient SDS-PAGE gel. After electrophoresis, the proteins are coomassie stained in gel to visualize protein dimer.

In a further experiment the test system is fusion protein CLIP-FRB. The experiment is described as follows: Protein trimer formation with CLIP-FRB by SDS-PAGE. As to conditions: 4 h incubation at rt, coomassie staining. The method, then:
To a solution of N-tris[(2-carboxyethoxy)methyl]methyl nile red-oxyacetamide (86) (10 mg, 0.014 mmol) and BC-PEG12-NH2 (98) (41 mg, 0.049 mmol, 3.5 eq) in DMF (1 mL) are successively added DIPEA (8.1 μL, 0.049 mmol, 3.5 eq), HOBT (1 M in NMP, 14 μL, 0.014 mmol, 1 eq) and EDC (10 mg, 0.049 mmol, 3.5 eq) at rt. The resulting mixture is stirred overnight. The solvent is evaporated under vacuum and compound (99) isolated by reversed phase HPLC on a C18 column using a linear gradient of water:acetonitrile (from 95:5 to 20:80 in 20 min, 0.08% TFA). The structural ability of compound (99) to trigger the formation of a protein trimer is confirmed by in vitro experiments using the fusion protein CLIP-FRB. 20 μL of a 52.9 μM solution of FRB protein fused to a variant of AGT available from Covalys under the trade name CLIP and 2 μL of a 100 μM solution of compound (99) is added to 3 μL of a solution of 50 mM Iris-HCl pH 7.5; 100 mM NaCl; 0.1% Tween20; 1 mM DTT. Following a 4 h incubation at rt, 15 μL of a solution of 100 mM Tris-HCl pH 6.8; 2% SDS; 35% glycerol; 10 mM EDTA; 20 mM DTT is added. Then the mixture is boiled for 5 min at 95° C. After cooling to rt, 25 μL of this solution is loaded on a 4-20% linear gradient SDS-PAGE gel. After electrophoresis, the proteins are coomassie stained in gel to visualize protein trimer.

Experiment [3] concerns FKBP protein fused to a variant of AGT available from Covalys as SNAP26 (SNAP-FKBP). Put plainly: Reactivity with FKBP-AGT fusion protein: protein trimer formation by SDS-PAGE and coomassie staining. As to conditions: 4 h incubation at rt; SDS-PAGE, coomassie staining. How it is done: 1 μL of a 591 μM solution of FKBP protein fused to a variant of AGT available from Covalys as SNAP26 and 1 μL of a 100 μM solution of compound (89), (90), (91), (92) or (96) are added to 8 μL of a solution of 50 mM Tris-HCl pH 7.5; 100 mM NaCl; 0.1% Tween20; 1 mM DTT. Following a 4 h incubation at rt, 15 μL of a solution of 100 mM Tris-HCl pH 6.8; 2% SDS; 35% glycerol; 10 mM EDTA; 20 mM DTT is added. The mixture is boiled for 5 min at 95° C. After cooling to rt, 25 μL of this solution is loaded on a 4-20% linear gradient SDS-PAGE gel. After electrophoresis, the proteins are coomassie stained in gel to visualize protein trimer.
Chain of FKBP protein fused to a variant of AGT available from Covalys as SNAP26 (SNAP-FKBP) (P16455 1-182 C62A/K125A/A127T/R128A/G131K/G132T/M134L/R135S/C150S/N157G/S159E limits assumed): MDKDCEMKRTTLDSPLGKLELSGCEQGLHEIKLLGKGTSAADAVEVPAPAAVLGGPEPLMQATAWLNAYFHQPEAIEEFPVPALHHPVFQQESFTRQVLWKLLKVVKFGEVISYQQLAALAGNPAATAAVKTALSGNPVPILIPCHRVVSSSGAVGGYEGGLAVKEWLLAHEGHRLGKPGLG

Chain of fusion protein CLIP-FRB (P16455 1-182 with the stated changes limits assumed): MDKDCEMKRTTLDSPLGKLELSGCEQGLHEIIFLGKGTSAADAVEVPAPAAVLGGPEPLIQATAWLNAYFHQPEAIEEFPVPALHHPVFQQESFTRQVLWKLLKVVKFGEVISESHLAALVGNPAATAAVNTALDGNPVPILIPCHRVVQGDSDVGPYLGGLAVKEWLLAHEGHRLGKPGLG

Consider `CCN(CC)c1ccc2nc3c4cc(OCC(=O)NC(COCCC(=O)NCCOCCOCCOCCOCCCCCCCl)(COCCC(=O)NCCOCCOCCOCCOCCCCCCCl)COCCC(=O)NCCOCCOCCOCCOCCCCCCCl)ccc4c(=O)cc-3oc2c1` [Compound 100, N-Tris-{[2-(halo-PEG4-NH-carbonyl)ethoxyl]methyl}methyl nile red-oxyacetamide], for which the “structural ability to trigger the formation of a protein trimer” value (“structural ability … of a protein trimer” below) in experiment [1] is given as “confirmed”.

As to `CN(C)c1ccc2c(-c3ccc(C(=O)NC(CCC(=O)NCc4ccc(COc5nc(N)nc6[nH]cnc56)cc4)C(=O)NCc4ccc(COc5nccc(N)n5)cc4)cc3C(=O)[O-])c3ccc(N(C)C)cc3[o+]c2c1` (centres unmarked) [Compound 104, N5-{4-[(2-amino-9H-purin-6-yloxy)methyl]benzyl}-N1-{4-[(4-aminopyrimidin-2-yloxy)methyl]benzyl}-2-tetramethylrhodamine-5-carboxamido-pentanediamide], the “structural ability to trigger the formation of a protein dimer” value in experiment [2] is listed as “confirmed”.

Consider “N-Tris-{[2-(BC-PEG12-NH-carbonyl)ethoxyl]methyl}methyl nile red-oxyacetamide [Compound 99]”, for which, in the experiment with fusion protein CLIP-FRB, the “structural ability … of a protein trimer” value is on record as “confirmed”. In the case of “N-Tris-{[2-(BG-PEG12-NH-carbonyl)ethoxy]methyl}methyl 3-[2-(2-maleimidoethyl)disulfanyl]propanoylamide [Compound 96]”, the “structural ability … of a protein trimer” value in experiment [3] is reported as “confirmed”.

As to “N-Tris-{[2-(BG-PEG12-NH-carbonyl)ethoxy]methyl}methyl 5-maleimido-pentanecarboxamide [Compound 92]”, in experiment [3], the “structural ability … of a protein trimer” value is on record as “confirmed”. Take “N-Tris-{[2-(BG-PEG12-NH-carbonyl)ethoxy]methyl}methyl 7-(diethylamino)-coumarin-3-carboxamide [Compound 89]”: the “structural ability … of a protein trimer” value in experiment [3] is listed as “confirmed”.

Regarding “N-Tris-{[2-(BG-PEG12-NH-carbonyl)ethoxy]methyl}methyl ATTO-495-carboxamide [Compound 90]”, the “structural ability … of a protein trimer” value in experiment [3] is listed as “confirmed”.

With “N-Tris-{[2-(BG-PEG12-NH-carbonyl)ethoxy]methyl}methyl nile red-oxyacetamide [Compound 91]”, the “structural ability … of a protein trimer” value in experiment [3] is “confirmed”.

The values are drawn from patent publication US20110014196A1, “Drug Transfer into Living Cells” (priority 2007, published 2011).
